Measurements taken from publication PMC8079033, “Design, synthesis, anticancer evaluation, and molecular modelling studies of novel tolmetin derivatives as potential VEGFR-2 inhibitors and apoptosis inducers” (Journal of Enzyme Inhibition and Medicinal Chemistry, 2021).

How the values were obtained:
ACHN = test: NCI 60-cell line one-dose antiproliferative screen (SRB); type: cell-based; conditions: Homo sapiens, read-out: growth inhibition % (GI%)
Experimental: (§1) Anticancer activity screening of the newly synthesised compounds was measured in vitro utilising 60 different human tumour cell lines provided by US National Cancer Institute according to previously reported standard procedure[41–43] as follows: Cells are inoculated into 96-well microtiter plates in 100 ml. After cell inoculation, the microtiter plates are incubated at 37 °C, 5% CO2, 95% air, and 100% relative humidity for 24 h prior to addition of experimental compounds. After 24 h, two plates of each cell line are fixed in situ with TCA, to represent a measurement of the cell population for each cell line at the time of compound addition (Tz). Experimental compounds are solubilised in dimethyl sulfoxide at 400-fold the desired final maximum test concentration and stored frozen prior to use. At the time of compound addition, an aliquot of frozen concentrate is thawed and diluted to twice the desired final maximum test concentration with a complete medium containing […] gentamicin. Aliquots of […] of the compounds dilutions are added to the appropriate microtiter wells already containing 100 ml of medium, resulting in the required final compound concentration. Following compound addition, the plates are incubated for an additional 48 h at 37 °C, 5% CO2, 95% air, and 100% relative humidity. For adherent cells, the assay is terminated by the addition of cold trichloroacetic acid (TCA). Cells are fixed in situ by the gentle addition of 50 ml of cold 50% (w/v) TCA (final concentration, 10% TCA) and incubated for […] at 4 °C. The supernatant is discarded, and the plates are washed five times with tap water and air-dried. Sulforhodamine B (SRB) solution (100 ml) at 0.4% (w/v) in 1% acetic acid is added to each well, and plates are incubated for 10 min at room temperature. After staining, the unbound dye is removed by washing five times with 1% acetic acid and the plates are air-dried. The bound stain is subsequently solubilised with a 10 mM trizma base, and the absorbance is read on an automated plate reader at a wavelength of 515 nm. For suspension cells, the methodology is the same except that the assay is terminated by fixing settled cells at the bottom of the wells by gently adding 50 ml of 80% TCA (final concentration, 16% TCA). Using the absorbance measurements [time zero, (Tz), control growth, (C), and test growth in the presence of compound (Ti)], the percentage growth is calculated for each compound. The One-dose data are reported as a mean graph of the percent growth of treated cells. The reported number is growth relative to the no-compound control, and relative to the time zero number of cells. This allows the detection of both growth inhibition and lethality.
(§2) Fifteen newly synthesised compounds were tested for their in vitro antiproliferative activity by the National Cancer Institute (NCI), Maryland, USA[50], under the Developmental Therapeutic Program (DTP)[41]^,[43]^,[51]^,[52]. The tested compounds were evaluated at a concentration of 10 µM on a panel of 60 tumour cell lines representing leukaemia and non-small cell lung, colon, CNS, melanoma, ovarian, renal, prostate, and breast cancers. The antiproliferative activity was presented by the NCI as percent growth of the treated cells and is presented in Table 1 as growth inhibition percentage (GI%) achieved by the tested compounds.

CAKI-1 = test: as above; type: cell-based; conditions: Homo sapiens, read-out: growth inhibition % (GI%)
Experimental: as §1, §2

EKVX = test: as above; type: cell-based; conditions: Homo sapiens, read-out: growth inhibition % (GI%)
Experimental: as §1, §2

HCC-2998 = test: as above; type: cell-based; conditions: Homo sapiens, read-out: growth inhibition % (GI%)
Experimental: as §1, §2

HCT-15 = test: as above; type: cell-based; conditions: Homo sapiens, read-out: growth inhibition % (GI%)
Experimental: as §1, §2

HOP-62 = test: as above; type: cell-based; conditions: Homo sapiens, read-out: growth inhibition % (GI%)
Experimental: as §1, §2

HOP-92 = test: as above; type: cell-based; conditions: Homo sapiens, read-out: growth inhibition % (GI%)
Experimental: as §1, §2

IGROV1 = test: as above; type: cell-based; conditions: Homo sapiens, IGROV-1, read-out: growth inhibition % (GI%)
Experimental: as §1, §2

LOX IMVI = test: as above; type: cell-based; conditions: Homo sapiens, read-out: growth inhibition % (GI%)
Experimental: as §1, §2

MCF7 = test: as above; type: cell-based; conditions: Homo sapiens, read-out: growth inhibition % (GI%)
Experimental: as §1, §2

MDA-MB-231/ATCC = test: as above; type: cell-based; conditions: Homo sapiens, read-out: growth inhibition % (GI%)
Experimental: as §1, §2

MDA-MB-435 = test: as above; type: cell-based; conditions: Homo sapiens, read-out: growth inhibition % (GI%)
Experimental: as §1, §2

MDA-MB-468 = test: as above; type: cell-based; conditions: Homo sapiens, read-out: growth inhibition % (GI%)
Experimental: as §1, §2

NCI-H226 = test: as above; type: cell-based; conditions: Homo sapiens, read-out: growth inhibition % (GI%)
Experimental: as §1, §2

NCI-H23 = test: as above; type: cell-based; conditions: Homo sapiens, read-out: growth inhibition % (GI%)
Experimental: as §1, §2

NCI-H522 = test: as above; type: cell-based; conditions: Homo sapiens, read-out: growth inhibition % (GI%)
Experimental: as §1, §2

OVCAR-5 = test: as above; type: cell-based; conditions: Homo sapiens, read-out: growth inhibition % (GI%)
Experimental: as §1, §2

OVCAR-8 = test: as above; type: cell-based; conditions: Homo sapiens, read-out: growth inhibition % (GI%)
Experimental: as §1, §2

PC-3 = test: as above; type: cell-based; conditions: Homo sapiens, read-out: growth inhibition % (GI%)
Experimental: as §1, §2

SF-268 = test: as above; type: cell-based; conditions: Homo sapiens, read-out: growth inhibition % (GI%)
Experimental: as §1, §2

SF-295 = test: as above; type: cell-based; conditions: Homo sapiens, read-out: growth inhibition % (GI%)
Experimental: as §1, §2

SF-539 = test: as above; type: cell-based; conditions: Homo sapiens, read-out: growth inhibition % (GI%)
Experimental: as §1, §2

SK-MEL-5 = test: as above; type: cell-based; conditions: Homo sapiens, read-out: growth inhibition % (GI%)
Experimental: as §1, §2

SN 12 C = test: as above; type: cell-based; conditions: Homo sapiens, SN12C, read-out: growth inhibition % (GI%)
Experimental: as §1, §2

SNB-75 = test: as above; type: cell-based; conditions: Homo sapiens, read-out: growth inhibition % (GI%)
Experimental: as §1, §2

SW-620 = test: as above; type: cell-based; conditions: Homo sapiens, read-out: growth inhibition % (GI%)
Experimental: as §1, §2

U251 = test: as above; type: cell-based; conditions: Homo sapiens, U-251, read-out: growth inhibition % (GI%)
Experimental: as §1, §2

UACC-257 = test: as above; type: cell-based; conditions: Homo sapiens, read-out: growth inhibition % (GI%)
Experimental: as §1, §2

UACC-62 = test: as above; type: cell-based; conditions: Homo sapiens, read-out: growth inhibition % (GI%)
Experimental: as §1, §2

UO-31 = test: as above; type: cell-based; conditions: Homo sapiens, read-out: growth inhibition % (GI%)
Experimental: as §1, §2

Cc1ccc(C(=O)c2ccc(CC(=O)NN=C3C(=O)Nc4ccccc43)n2C)cc1 [Compound 6a, 2–(1-Methyl-5–(4-methylbenzoyl)-1H-pyrrol-2-yl)-N′-(2-oxoindolin-3-ylidene) acetohydrazide]
inhibition at 10 µM (ACHN): < 10%
inhibition at 10 µM (CAKI-1): 12.3%
inhibition at 10 µM (EKVX): < 10%
inhibition at 10 µM (HCC-2998): < 10%
inhibition at 10 µM (HCT-15): < 10%
inhibition at 10 µM (HOP-62): < 10%
inhibition at 10 µM (HOP-92): 11.1%
inhibition at 10 µM (IGROV1): < 10%
inhibition at 10 µM (LOX IMVI): < 10%
inhibition at 10 µM (MCF7): < 10%
inhibition at 10 µM (MDA-MB-231/ATCC): 11.4%
inhibition at 10 µM (MDA-MB-435): < 10%
inhibition at 10 µM (MDA-MB-468): 10.5%
inhibition at 10 µM (NCI-H226): < 10%
inhibition at 10 µM (NCI-H23): < 10%
inhibition at 10 µM (NCI-H522): < 10%
inhibition at 10 µM (OVCAR-5): < 10%
inhibition at 10 µM (OVCAR-8): < 10%
inhibition at 10 µM (PC-3): < 10%
inhibition at 10 µM (SF-268): < 10%
inhibition at 10 µM (SF-295): < 10%
inhibition at 10 µM (SF-539): < 10%
inhibition at 10 µM (SK-MEL-5): < 10%
inhibition at 10 µM (SN 12 C): < 10%
inhibition at 10 µM (SNB-75): 29.6%
inhibition at 10 µM (SW-620): < 10%
inhibition at 10 µM (U251): < 10%
inhibition at 10 µM (UACC-257): < 10%
inhibition at 10 µM (UACC-62): < 10%
inhibition at 10 µM (UO-31): 25.7%
melting point: 193 to 195 °C
